This note sets out measurements from ChEMBL document CHEMBL1129393, “Synthesis of novel trans-4-(substituted-benzamido)-3,4-dihydro-2H-benzo[b]-pyran-3-ol derivatives as potential anticonvulsant agents with a distinctive binding profile” (J Med Chem, 1996).

Test [1] deals with Mus musculus. Description: Percentage increase in seizure threshold at dose of 10 mg/kg in mouse maximal electroshock seizure threshold (MEST) model after po administration. Type of test: functional.
The target of test [2] is SB-204269 binding site. Nature of the test: Inhibition of [3H]-SB 204269 binding to rat forebrain membranes. Type of test: cell membranes, Membrane.
Test [3] deals with Mus musculus. Description: Percentage increase in seizure threshold at dose of 3 mg/kg in mouse maximal electroshock seizure threshold (MEST) model after po administration. (In general: The maximal electroshock test induces tonic seizures with an electrical stimulus.)

Take `CC(=O)c1ccc2c(c1)C(NC(=O)c1ccc(Cl)cc1)C(O)C(C)(C)O2` (stereo not drawn): the Increase in test [1] is 55%. For the same compound, the “Log Ki” value in test [2] is recorded as -7.16.
Take `CC(=O)c1ccc2c(c1)[C@H](NC(=O)c1cccc(Cl)c1)[C@@H](O)C(C)(C)O2`: the Increase in test [3] turned out to be 78%; in test [1] it was 90%. Also, the “Log Ki” value in test [2] is recorded as -8.04.
Turning to `CC(=O)c1ccc2c(c1)C(NC(=O)C1CCCCC1)C(O)C(C)(C)O2` (stereo not drawn), the “Log Ki” value in test [2] is -5.9.
With `CC(=O)c1ccc2c(c1)[C@H](NC(=O)c1ccccc1)[C@@H](O)C(C)(C)O2`, the Increase in test [3] was determined as 65%; in test [1] it was 110%. In addition, the “Log Ki” value in test [2] was -7.3.
On to `CC(=O)c1cccc2c1OC(C)(C)C(O)C2NC(=O)c1ccc(F)cc1` (stereo not drawn), for which, in test [1], the Increase was found to be 5%. Moreover, in test [2], the “Log Ki” value was -5.
Regarding `CC(=O)c1ccc2c(c1)[C@@H](NC(=O)c1ccc(F)cc1)[C@H](O)C(C)(C)O2`, the Increase in test [1] stood at 8%. Also, the “Log Ki” value in test [2] is recorded as less than -4.5.
On the same counts, the results for `Cc1ccc2c(c1)C(NC(=O)c1ccc(F)cc1)C(O)C(C)(C)O2` (stereo not drawn) are 5% and -5.3.
Regarding `CC1(C)Oc2ccc(C#N)cc2[C@H](NC(=O)c2ccc(F)cc2)[C@H]1O`, the Increase was 15% in test [3] and 41% in test [1]. The “Log Ki” value in test [2] is -6.
Take `CC(=O)c1ccc2c(c1)[C@H](NC(=O)c1ccccc1Cl)[C@@H](O)C(C)(C)O2`: the Increase in test [3] stood at 94%. Also, the “Log Ki” value in test [2] is -7.65.
As to `CCC(=O)c1ccc2c(c1)C(NC(=O)c1ccc(F)cc1)C(O)C(C)(C)O2` (stereo not drawn), the Increase in test [1] is 35%. In test [2], the “Log Ki” value is listed as -6.8.
On the same counts, the results for `CC1(C)Oc2ccc(S(=O)(=O)c3ccccc3)cc2C(NC(=O)c2ccc(F)cc2)C1O` (stereo not drawn) are -7% and -5.84.
As for `CC(=O)c1ccc2c(c1)[C@H](NC(=O)c1ccc(F)cc1)[C@@H](O)C(C)(C)O2` [CARABERSAT], the values for the Increase in test [3] and in test [1] were 89% and 102%, respectively. The “Log Ki” value in test [2] is -7.32.
In the case of `CC(=O)c1cccc2c1C(NC(=O)c1ccc(F)cc1)C(O)C(C)(C)O2` (stereo not drawn), the “Log Ki” value in test [2] was -5.09.
Regarding `CC1(C)Oc2ccc(C(N)=O)cc2C(NC(=O)c2ccc(F)cc2)C1O` (stereo not drawn), the Increase in test [1] is 6%. The “Log Ki” value in test [2] was -6.06.
`COC(=O)c1ccc2c(c1)C(NC(=O)c1ccc(F)cc1)C(O)C(C)(C)O2` (stereo not drawn): the Increase in test [1] is 59%. Also, in test [2], the “Log Ki” value is on record as -6.69.
On the same counts, the results for `CC1(C)Oc2ccc(C(F)(F)C(F)(F)F)cc2[C@H](NC(=O)c2ccc(F)cc2)[C@H]1O` are -8% and -6.35.
In the same order, the values of `CC1(C)Oc2ccc(F)cc2C(NC(=O)c2ccc(F)cc2)C1O` (stereo not drawn) are 10% and -5.38.
Regarding `CC(=O)c1ccc2c(c1)OC(C)(C)C(O)C2NC(=O)c1ccc(F)cc1` (stereo not drawn), the “Log Ki” value in test [2] is given as -5.51.
`CC(=O)c1ccc2c(c1)[C@H](NC(=O)c1cccc(I)c1)[C@@H](O)C(C)(C)O2`: the Increase in test [1] turned out to be 51%. In test [2], the “Log Ki” value is given as -8.28.
Turning to `CC1(C)Oc2ccc([N+](=O)[O-])cc2C(NC(=O)c2ccc(F)cc2)C1O` (stereo not drawn), the Increase came to 2% in test [3] and 45% in test [1]. Besides, the “Log Ki” value in test [2] is reported as -6.2.
Consider `CC1(C)Oc2ccc(C(=O)c3ccccc3)cc2C(NC(=O)c2ccc(F)cc2)C1O` (stereo not drawn), for which the “Log Ki” value in test [2] is on record as -6.12.
